Read-outs that look alike come from different tables or passages of the source.
How the values were obtained:
Type in all cases: biochemical
[1] = target: T1, puromycin-sensitive aminopeptidase (APP-S) (Homo sapiens, UniProt P55786); test: chromogenic hydrolysis kinetics at […] nm with purified recombinant enzyme
[2] = target: T1, puromycin-sensitive aminopeptidase (APP-S)
[3] = target: T1, puromycin-sensitive aminopeptidase (APP-S); test: inhibition of purified recombinant APP-S hydrolysis of Ala-pNA/Val-pNA

T1 sequence (P55786 whole entry): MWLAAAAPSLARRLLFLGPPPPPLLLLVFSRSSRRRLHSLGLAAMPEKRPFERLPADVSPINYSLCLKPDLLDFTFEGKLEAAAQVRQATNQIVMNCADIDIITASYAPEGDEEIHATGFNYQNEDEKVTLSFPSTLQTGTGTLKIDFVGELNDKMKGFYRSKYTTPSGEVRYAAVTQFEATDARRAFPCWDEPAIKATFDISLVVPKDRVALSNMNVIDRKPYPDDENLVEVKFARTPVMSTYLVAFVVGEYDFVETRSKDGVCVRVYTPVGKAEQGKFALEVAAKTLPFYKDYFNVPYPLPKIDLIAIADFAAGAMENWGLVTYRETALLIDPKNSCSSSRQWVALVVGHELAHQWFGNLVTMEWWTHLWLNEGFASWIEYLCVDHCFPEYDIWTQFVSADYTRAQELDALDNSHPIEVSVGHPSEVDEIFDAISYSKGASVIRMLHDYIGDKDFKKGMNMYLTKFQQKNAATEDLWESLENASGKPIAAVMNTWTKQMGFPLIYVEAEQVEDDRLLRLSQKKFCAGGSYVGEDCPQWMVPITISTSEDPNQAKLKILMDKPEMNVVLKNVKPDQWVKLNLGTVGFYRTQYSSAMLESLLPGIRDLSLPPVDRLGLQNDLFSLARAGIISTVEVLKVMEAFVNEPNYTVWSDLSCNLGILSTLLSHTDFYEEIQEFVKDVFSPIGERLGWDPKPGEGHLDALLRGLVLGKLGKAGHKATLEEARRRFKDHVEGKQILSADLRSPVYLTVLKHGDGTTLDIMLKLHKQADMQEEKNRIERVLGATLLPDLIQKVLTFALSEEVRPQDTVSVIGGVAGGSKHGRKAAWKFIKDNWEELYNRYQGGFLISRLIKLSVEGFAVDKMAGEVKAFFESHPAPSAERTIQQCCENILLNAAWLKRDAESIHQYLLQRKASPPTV

SMILES | Km [1] | further results
C[C@H](N)C(=O)Nc1ccc([N+](=O)[O-])cc1 [Ala-pNA] | 510 ± 140 µM | –
COC(=O)[C@H](CO[P@@]1(=O)COC(Cn2ccc(N)nc2=O)CO1)NC(=O)[C@@H](N)C(C)C (stereo partly drawn) [compound 2, Methyl (S)-2-((S)-2-Amino-3-methyl-butyrylamino)-3-[(S)-5-(4-amino-2-oxo-2H-pyrimidin-1-ylmethyl)-2-oxido-1,4,2-dioxaphosphinan-2-yloxy]propanoate] | – | Km [2]: 850 ± 330 µM
CC(C)[C@H](N)C(=O)Nc1ccc([N+](=O)[O-])cc1 [Val-pNA] | 280 ± 190 µM | –
CC(C)C[C@H](NC(=O)[C@@H](O)[C@H](N)Cc1ccccc1)C(=O)O [bestatin] | – | inhibition of purified recombinant APP-S hydrolysis of Ala-pNA/Val-pNA (405 nm) [3]: APP-S hydrolysis of the model substrates was completely inhibited by the addition of bestatin.
